{"source": "patent US20240373847A1", "about": "“HERBICIDAL MALONAMIDES” (BASF SE, priority 2021, published 2024)", "format_in_all_cases": "in vivo", "key": {"[1]": {"system": "Amaranthus retroflexus (AMARE)", "test": "greenhouse test, pre-emergence treatment", "settings": "pre-emergence method, scale from 0 to 100", "from_the_text": "(§1) The culture containers used were plastic flowerpots containing loamy sand with approximately 3.0% of humus as the substrate. The seeds of the test plants were sown separately for each species.\n(§2) For the pre-emergence treatment, the active ingredients, which had been suspended or emulsified in water, were applied directly after sowing by means of finely distributing nozzles. The containers were irrigated gently to promote germination and growth and subsequently covered with transparent plastic hoods until the test plants had rooted.\n(§3) This cover caused uniform germination of the test plants, unless this had been impaired by the active ingredients.\n(§4) Depending on the species, the test plants were kept at 10-25° C. or 20-35° C., respectively.\n(§5) The test period extended over 2 to 4 weeks. During this time, the test plants were tended, and their response to the individual treatments was evaluated.\n(§6) Evaluation was carried out using a scale from 0 to 100. 100 means no emergence of the test plants, or complete destruction of at least the aerial moieties, and 0 means no damage, or normal course of growth. A good herbicidal activity is given at values of 70 to <90 and a very good herbicidal activity is given at values of 90 to 100.\n(§7) The test plants used in the greenhouse experiments were of the following species: […]"}, "[2]": {"system": "Abutilon theophrasti (ABUTH)", "test": "greenhouse test, pre-emergence treatment", "settings": "0.125 kg/ha, pre-emergence method; scale from 0 to 100", "from_the_text": "as §1, §2, §3, §4, §5, §6, §7"}, "[3]": {"system": "Amaranthus retroflexus (AMARE)", "test": "greenhouse test, post-emergence treatment", "settings": "1.000 kg/ha, post-emergence method; scale from 0 to 100", "from_the_text": "as §1\n(§8) For the post-emergence treatment, the test plants were first grown to a height of 3 to 15 cm, depending on the plant habit, and only then treated with the active ingredients which had been suspended or emulsified in water. For this purpose, the test plants were either sown directly and grown in the same containers, or they were first grown separately as seedlings and transplanted into the test containers a few days prior to treatment.\nas §4, §5, §6, §7"}, "[4]": {"system": "Digitaria sanguinalis (DIGSA)", "test": "greenhouse test, pre-emergence treatment", "settings": "1.000 kg/ha, pre-emergence method; scale from 0 to 100", "from_the_text": "as §1, §2, §3, §4, §5, §6, §7"}, "[5]": {"system": "Lolium multiflorum (LOLMU)", "test": "greenhouse test, pre-emergence treatment", "settings": "1.000 kg/ha, pre-emergence method; scale from 0 to 100", "from_the_text": "as §1, §2, §3, §4, §5, §6, §7"}, "[6]": {"system": "Echinocloa crus-galli (ECHCG)", "test": "greenhouse test, post-emergence treatment", "settings": "0.500 kg/ha, post-emergence method; scale from 0 to 100", "from_the_text": "as §1, §8, §4, §5, §6, §7"}, "Setaria faberi (SETFA)": {"system": "Setaria faberi (SETFA)", "test": "greenhouse test, pre-emergence treatment", "settings": "0.125 kg/ha, pre-emergence method; scale from 0 to 100", "from_the_text": "as §1, §2, §3, §4, §5, §6, §7"}, "[7]": {"system": "Echinocloa crus-galli (ECHCG)", "test": "greenhouse test, pre-emergence treatment", "settings": "0.125 kg/ha, pre-emergence method; scale from 0 to 100", "from_the_text": "as §1, §2, §3, §4, §5, §6, §7"}, "Setaria viridis (SETVI) [8]": {"system": "Setaria viridis (SETVI)", "test": "greenhouse test, post-emergence treatment", "settings": "1.000 kg/ha, post-emergence method; scale from 0 to 100", "from_the_text": "as §1, §8, §4, §5, §6, §7"}, "[9]": {"system": "Apera spica-venti (APESV)", "test": "greenhouse test, pre-emergence treatment", "settings": "0.125 kg/ha, pre-emergence method; scale from 0 to 100", "from_the_text": "as §1, §2, §3, §4, §5, §6, §7"}, "Setaria viridis (SETVI) [10]": {"system": "Setaria viridis (SETVI)", "test": "greenhouse test, pre-emergence treatment", "settings": "0.250 kg/ha, pre-emergence method; scale from 0 to 100", "from_the_text": "as §1, §2, §3, §4, §5, §6, §7"}}}
{"smiles": "CCC(C(=O)Nc1cccc(OC(F)(F)F)c1)C(=O)NC(C)CCC(=O)O", "note": "(stereo not shown) [I.128]", "values": [{"measurement": "herbicidal activity against AMARE", "setting": "[1]; 1.000 kg/ha", "result": "very good herbicidal activity (a very good herbicidal activity is given at values of 90 to 100)"}]}
{"smiles": "CONC(=O)CC(C)NC(=O)C(C)C(=O)Nc1cc(F)cc(F)c1", "note": "(stereo not shown) [I.79]", "values": [{"measurement": "herbicidal activity against ABUTH", "setting": "[2]", "result": "good herbicidal activity (A good herbicidal activity is given at values of 70 to <90)"}]}
{"smiles": "CCC(C(=O)Nc1cc(F)cc(F)c1)C(=O)NC(C)CC(=O)O", "note": "(stereo not shown) [I.144]", "values": [{"measurement": "herbicidal activity against AMARE", "setting": "[3]", "result": "good herbicidal activity (A good herbicidal activity is given at values of 70 to <90)"}]}
{"smiles": "CCC(C(=O)Nc1cccc(F)c1)C(=O)N[C@H]1C=C[C@@H](C(=O)O)C1", "note": "(stereo partly shown) [I.138]", "values": [{"measurement": "herbicidal activity against DIGSA", "setting": "[4]", "result": "good herbicidal activity (A good herbicidal activity is given at values of 70 to <90)"}, {"measurement": "herbicidal activity against LOLMU", "setting": "[5]", "result": "good herbicidal activity (A good herbicidal activity is given at values of 70 to <90)"}]}
{"smiles": "COC(=O)CC(C)NC(=O)C(C(=O)Nc1cc(Cl)cc(Cl)c1)C1CC1", "note": "(stereo not shown) [I.3]", "values": [{"measurement": "herbicidal activity against ECHCG", "setting": "[6]", "result": "good herbicidal activity (A good herbicidal activity is given at values of 70 to <90)"}]}
{"smiles": "CCC(C(=O)Nc1cc(Cl)cc(Cl)c1)C(=O)N[C@H]1C=C[C@@H](C(=O)OC)C1", "note": "(stereo partly drawn) [I.90, methyl (1S,4R)-4-[2-[(3,5-dichlorophenyl)carbamoyl]butanoylamino]cyclopent-2-ene-1-carboxylate]", "values": [{"measurement": "herbicidal activity against SETFA", "setting": "Setaria faberi (SETFA)", "result": "good herbicidal activity (A good herbicidal activity is given at values of 70 to <90)"}]}
{"smiles": "CCS(=O)(=O)NC(=O)CC(C)NC(=O)C(C)C(=O)Nc1cc(C)cc(F)c1", "note": "(stereo not shown) [I.14]", "values": [{"measurement": "herbicidal activity against AMARE", "setting": "[1]; 0.125 kg/ha", "result": "very good herbicidal activity (a very good herbicidal activity is given at values of 90 to 100)"}, {"measurement": "herbicidal activity against ECHCG", "setting": "[7]", "result": "good herbicidal activity (A good herbicidal activity is given at values of 70 to <90)"}]}
{"smiles": "CCC(C(=O)Nc1cc(C)cc(F)c1)C(=O)NC(C)CCC(=O)O", "note": "(stereo not shown) [I.136]", "values": [{"measurement": "herbicidal activity against SETVI", "setting": "Setaria viridis (SETVI) [8]", "result": "good herbicidal activity (A good herbicidal activity is given at values of 70 to <90)"}]}
{"smiles": "CCc1cccc(NC(=O)C(CC)C(=O)NC(C)CCC(=O)OC)c1", "note": "(stereo not shown) [I.117]", "values": [{"measurement": "herbicidal activity against APESV", "setting": "[9]", "result": "very good herbicidal activity (a very good herbicidal activity is given at values of 90 to 100)"}]}
{"smiles": "COC(=O)CC(C)NC(=O)C(C)C(=O)Nc1cc(Cl)cc(Cl)c1", "note": "(stereo not shown) [I.1]", "values": [{"measurement": "herbicidal activity against AMARE", "setting": "[1]; 0.500 kg/ha", "result": "good herbicidal activity (A good herbicidal activity is given at values of 70 to <90)"}]}
{"smiles": "COC(=O)C1C=CC(NC(=O)C(C)C(=O)Nc2cc(F)cc(F)c2)C1", "note": "(mixture of isomers) [I.153]", "values": [{"measurement": "herbicidal activity against SETVI", "setting": "Setaria viridis (SETVI) [10]", "result": "very good herbicidal activity (a very good herbicidal activity is given at values of 90 to 100)"}]}
